In US10538555B2, “Macrocyclic inhibitors of the PD-1/PD-L1 and CD80(B7-1)/PD-L1 protein/protein interactions” (BRISTOL-MYERS SQUIBB COMPANY, priority 2014, dated 2020):
pIC50: −log10 of the molar value. *1 amine or outer side, *2 acyl side, *3 side chain or, on linkers, in order; H or OH if unused. Where a SMILES comes first, the peptide text is derived from it. Bridges are numbered along the chain shown (N, C = ends). [ ]: non-standard residue; d: D form. ξ: configuration not given here. X3 = O=C(C[C@@H](CO)C(=O)[*:2])[C@H](Cc1c[nH]c2ccccc12)N[*:1]; Trp(1-CH2COOH) = N[C@@H](Cc1cn(CC(=O)O)c2ccccc12)C(=O)O; Trp(βS-Me) = C[C@@H](c1c[nH]c2ccccc12)[C@H](N)C(=O)O; X2 = NC(=O)C[C@H](N[*:1])C(=O)C1CCC[C@H]1C(=O)[*:2]; Phe(3,4,5-F3) = N[C@@H](Cc1cc(F)c(F)c(F)c1)C(=O)O; Phe(3,4-F2) = N[C@@H](Cc1ccc(F)c(F)c1)C(=O)O; NMePhe(4-Me) = CN[C@@H](Cc1ccc(C)cc1)C(=O)O; NMePhe(4-F) = CN[C@@H](Cc1ccc(F)cc1)C(=O)O; Phe(4-F) = N[C@@H](Cc1ccc(F)cc1)C(=O)O; d(cisHyp) = O=C(O)[C@H]1C[C@@H](O)CN1; Bta = N[C@@H](Cc1csc2ccccc12)C(=O)O; Hyp = O=C(O)[C@@H]1C[C@@H](O)CN1; NMeF = CN[C@@H](Cc1ccccc1)C(=O)O; dHyp = O=C(O)[C@H]1C[C@H](O)CN1; NMeNle = CCCC[C@H](NC)C(=O)O; dNle = CCCC[C@@H](N)C(=O)O; Pip = O=C(O)[C@@H]1CCCCN1; dPip = O=C(O)[C@H]1CCCCN1; hSer = N[C@@H](CCO)C(=O)O; NMeA = CN[C@@H](C)C(=O)O; Orn = NCCC[C@H](N)C(=O)O; dNMeA = CN[C@H](C)C(=O)O; dThz = O=C(O)[C@H]1CSCN1; Dab = NCC[C@H](N)C(=O)O; Dap = NC[C@H](N)C(=O)O; ξP = O=C(O)C1CCCN1; ξC = NC(CS)C(=O)O; Sar = CNCC(=O)O

Target: T1, Human PD-L1/PD-1 (Homo sapiens, UniProt Q9NZQ7)
T1 construct: TVMV protease cleavage site (C); made in house; host or cells: HEK293T cells
T1 sequence (Q9NZQ7 with tags, fused parts or gaps): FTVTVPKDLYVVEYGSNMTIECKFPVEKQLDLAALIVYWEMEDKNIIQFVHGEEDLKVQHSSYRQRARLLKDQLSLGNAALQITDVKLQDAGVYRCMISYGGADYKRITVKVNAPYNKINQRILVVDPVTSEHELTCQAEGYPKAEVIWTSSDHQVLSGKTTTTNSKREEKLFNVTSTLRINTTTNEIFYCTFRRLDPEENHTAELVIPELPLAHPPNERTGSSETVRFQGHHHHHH
Experiment: HTRF Human PD-L1/PD-1 binding assay (PD-1-Ig/PD-L1-His)
Settings: PD-L1-His 10 nM, PD-1-Ig 20 nM; class symbol; read-out: HTRF Human PD-L1/PD-1 Binding Assay IC50 Range
Summary of the method: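 Soluble HEK293T-expressed proteins: hPD-L1-His 10 nM, hPD-1-Ig 20 nM final. Cpd + PD-L1 15 min, + PD-1 15 min, + Eu anti-Ig 1 nM/APC anti-His 20 nM 30 min. Buffer dPBS, 0.1% BSA, 0.05% Tween-20. TR-FRET 665/620.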

Structure (SMILES)	pIC50
CCCC[C@H]1C(=O)N2CCC[C@@H]2C(=O)N[C@@H](CC(=O)O)C(=O)N[C@@H](C(C)C)C(=O)N(C)[C@@H](Cc2ccccc2)C(=O)N[C@@H](Cc2ccc(O)cc2)C(=O)N2CCC[C@@H]2C(=O)N[C@@H]([C@@H](C)c2c[nH]c3ccccc23)C(=O)N[C@@H](Cc2ccc(O)cc2)C(=O)N[C@@H](CC(C)C)C(=O)N[C@H](C(=O)NCC(N)=O)CSCC(=O)N[C@@H](Cc2ccccc2)C(=O)N(C)[C@@H](Cc2ccccc2)C(=O)N1C [Example 10535] ({CH2CO}-F[NMeF][NMeNle][dP]DV[NMeF]Y[dP][Trp(βS-Me)]YLCG-NH2; thioether N-13)	8.00 to 9.00
CCCC[C@H]1C(=O)N(C)[C@@H](CCCC)C(=O)N[C@@H](CCC(=O)O)C(=O)NC(C(=O)NCC(N)=O)CSCC(=O)N[C@@H](Cc2ccc(O)cc2)C(=O)N(C)[C@@H](C)C(=O)N[C@@H](CC(N)=O)C(=O)N2CCC[C@H]2C(=O)N[C@@H](CC(N)=O)C(=O)N[C@@H](CC(C)C)C(=O)N2CCC[C@H]2C(=O)N[C@@H](Cc2c[nH]c3ccccc23)C(=O)N[C@@H](CCO)C(=O)N[C@@H](Cc2c[nH]c3ccccc23)C(=O)N1C (stereo partly drawn) [Example 9184] ({CH2CO}-Y[NMeA]NPNLPW[hSer]W[NMeNle][NMeNle]E[ξC]G-NH2; thioether N-14)	7.00 to 8.00
CCCC[C@H]1C(=O)N2C[C@H](O)C[C@@H]2C(=O)N[C@@H](CC(=O)O)C(=O)N[C@@H](C(C)C)C(=O)N(C)[C@@H](Cc2ccccc2)C(=O)N[C@@H](CCC(=O)O)C(=O)N2C[C@@H](O)C[C@@H]2C(=O)N[C@@H](Cc2c[nH]c3ccccc23)C(=O)N[C@@H](Cc2ccc(O)cc2)C(=O)N[C@@H](CCCN)C(=O)N[C@H](C(=O)NCC(N)=O)CSCC(=O)N[C@@H](Cc2cc(F)c(F)c(F)c2)C(=O)N(C)[C@@H](Cc2ccccc2)C(=O)N1C [Example 9374] ({CH2CO}-[Phe(3,4,5-F3)][NMeF][NMeNle][d(cisHyp)]DV[NMeF]E[dHyp]WY[Orn]CG-NH2; thioether N-13)	7.00 to 8.00
CCCC[C@H]1C(=O)N2CCC[C@@H]2C(=O)N[C@@H](CC(=O)O)C(=O)N[C@@H](C(C)C)C(=O)N(C)[C@@H](Cc2ccc(C)cc2)C(=O)N[C@@H](CCC(=O)O)C(=O)N2CCC[C@@H]2C(=O)N[C@@H](Cc2c[nH]c3ccccc23)C(=O)N[C@@H](Cc2ccc(O)cc2)C(=O)N[C@@H](CC(C)C)C(=O)N[C@H](C(=O)NCC(N)=O)CSCC(=O)N[C@@H](Cc2ccc(F)cc2)C(=O)N(C)[C@@H](Cc2ccccc2)C(=O)N1C [Example 10115] ({CH2CO}-[Phe(4-F)][NMeF][NMeNle][dP]DV[NMePhe(4-Me)]E[dP]WYLCG-NH2; thioether N-13)	6.00 to 7.00
CC(C)[C@@H]1NC(=O)[C@H](CCC(=O)O)NC(=O)[C@@H](C)N(C)C(=O)[C@H](C)N(C)C(=O)[C@H](Cc2ccccc2)N(C)C(=O)[C@H](Cc2cc(F)c(F)c(F)c2)NC(=O)CSC[C@@H](C(=O)NCC(N)=O)NC(=O)[C@H](CCCN)NC(=O)[C@H](Cc2ccc(O)cc2)NC(=O)[C@H](Cc2c[nH]c3ccccc23)NC(=O)[C@@H](C)N(C)C(=O)[C@H](Cc2ccc(O)cc2)NC(=O)[C@H](Cc2ccccc2)N(C)C1=O [Example 9194] ({CH2CO}-[Phe(3,4,5-F3)][NMeF][NMeA][dNMeA]EV[NMeF]Y[dNMeA]WY[Orn]CG-NH2; thioether N-13)	8.00 to 9.00
CCCC[C@H]1C(=O)N(C)[C@@H](CCCC)C(=O)N[C@@H](CC(C)C)C(=O)N[C@H](C(=O)NCC(N)=O)CSCC(=O)N[C@@H](Cc2ccc(O)cc2)C(=O)N(C)[C@@H](C)C(=O)N[C@@H](CC(N)=O)C(=O)N(C)CC(=O)N[C@@H](Cc2cnc[nH]2)C(=O)N[C@@H](CCC(=O)O)C(=O)N2C[C@H](O)C[C@H]2C(=O)N[C@@H](Cc2c[nH]c3ccccc23)C(=O)N[C@@H](CCN)C(=O)N[C@@H](Cc2csc3ccccc23)C(=O)N1C [Example 5225] ({CH2CO}-Y[NMeA]N[Sar]HE[Hyp]W[Dab][Bta][NMeNle][NMeNle]LCG-NH2; thioether N-14)	8.00 to 9.00
CCCC[C@H]1C(=O)N2C[C@H](O)C[C@@H]2C(=O)N[C@@H](CC(=O)O)C(=O)N[C@@H](C(C)C)C(=O)N(C)[C@@H](Cc2ccccc2)C(=O)N[C@@H](CC(=O)O)C(=O)N2CSC[C@@H]2C(=O)N[C@@H](Cc2c[nH]c3ccccc23)C(=O)N[C@@H](Cc2ccc(O)cc2)C(=O)N[C@@H](CC(C)C)C(=O)N[C@H](C(=O)NCC(N)=O)CSCC(=O)N[C@@H](Cc2cc(F)c(F)c(F)c2)C(=O)N(C)[C@@H](Cc2ccccc2)C(=O)N1C [Example 10149] ({CH2CO}-[Phe(3,4,5-F3)][NMeF][NMeNle][d(cisHyp)]DV[NMeF]D[dThz]WYLCG-NH2; thioether N-13)	8.00 to 9.00

More lines, now with the values ahead:

pIC50	Structure (SMILES)
8.00 to 9.00	CCCC[C@H]1C(=O)N2C[C@@H](O)C[C@@H]2C(=O)N[C@@H](CC(=O)O)C(=O)N[C@@H](C(C)C)C(=O)N(C)[C@@H](Cc2ccccc2)C(=O)N[C@@H](Cc2ccc(OC)cc2)C(=O)N2C[C@@H](O)C[C@@H]2C(=O)N[C@@H](Cc2c[nH]c3ccccc23)C(=O)N[C@@H](Cc2ccc(O)cc2)C(=O)N[C@@H](CC(C)C)C(=O)N[C@H](C(=O)NCC(N)=O)CSCC(=O)N[C@@H](Cc2ccc(F)c(F)c2)C(=O)N(C)[C@@H](Cc2ccccc2)C(=O)N1C [Example 9225] ({CH2CO}-[Phe(3,4-F2)][NMeF][NMeNle][dHyp]DV[NMeF]Y(Me)[dHyp]WYLCG-NH2; thioether N-13)
5.00 to 6.00	CCCC[C@H]1C(=O)N[C@@H](CC(N)=O)C(=O)N2CCC[C@H]2C(=O)N[C@@H](CO)C(=O)N[C@@H](CCO)C(=O)N2CCC[C@H]2C(=O)N[C@@H](Cc2c[nH]c3ccccc23)C(=O)N[C@@H](CCCN)C(=O)N[C@@H](Cc2c[nH]c3ccccc23)C(=O)N(C)[C@@H](C)C(=O)N(C)CC(=O)N[C@@H](CCCNC(=N)N)C(=O)NC(C(=O)NCC(N)=O)CSCC(=O)N[C@@H](Cc2ccc(O)cc2)C(=O)N1C (stereo partly drawn) [Example 10204] ({CH2CO}-Y[NMeNle]NPS[hSer]PW[Orn]W[NMeA][Sar]R[ξC]G-NH2; thioether N-14)
7.00 to 8.00	CCCC[C@H]1C(=O)N(C)[C@@H](CCCC)C(=O)N[C@@H](CC(C)C)C(=O)N[C@H](C(=O)NCC(N)=O)CSCC(=O)N[C@@H](Cc2ccc(O)cc2)C(=O)N2CCCC[C@H]2C(=O)N[C@@H](CC(N)=O)C(=O)N2CCC[C@H]2C(=O)N[C@@H](CO)C(=O)N[C@@H](CCC(N)=O)C(=O)N2C[C@H](O)C[C@H]2C(=O)N[C@@H](Cc2c[nH]c3ccccc23)C(=O)N[C@@H](CO)C(=O)N[C@@H](Cc2cn(CC(=O)O)c3ccccc23)C(=O)N1C [Example 1304] ({CH2CO}-Y[Pip]NPSQ[Hyp]WS[Trp(1-CH2COOH)][NMeNle][NMeNle]LCG-NH2; thioether N-14)
8.00 to 9.00	CCCC[C@H]1C(=O)N2C[C@@H](O)C[C@@H]2C(=O)N[C@@H](CC(=O)O)C(=O)N[C@@H](C(C)C)C(=O)N(C)[C@@H](Cc2ccccc2)C(=O)N[C@@H](CCC(=O)O)C(=O)N2CCCC[C@@H]2C(=O)N[C@@H](Cc2c[nH]c3ccccc23)C(=O)N[C@@H](Cc2ccc(O)cc2)C(=O)N[C@@H](CC(N)=O)C(=O)N[C@H](C(=O)NCC(N)=O)CSCC(=O)N[C@@H](Cc2cc(F)c(F)c(F)c2)C(=O)N(C)[C@@H](Cc2ccc(F)cc2)C(=O)N1C [Example 10558] ({CH2CO}-[Phe(3,4,5-F3)][NMePhe(4-F)][NMeNle][dHyp]DV[NMeF]E[dPip]WYNCG-NH2; thioether N-13)
8.00 to 9.00	CCCC[C@H]1C(=O)N2CCC[C@@H]2C(=O)N[C@@H](CC(=O)O)C(=O)N[C@@H](C(C)C)C(=O)N(C)[C@@H](Cc2ccccc2)C(=O)N[C@@H](CCC(=O)O)C(=O)N2CCCC[C@@H]2C(=O)N[C@@H](Cc2c[nH]c3ccccc23)C(=O)N[C@@H](Cc2ccc(O)cc2)C(=O)N[C@@H](CC(N)=O)C(=O)N[C@H](C(=O)NCC(N)=O)CSCC(=O)N[C@@H](Cc2cc(F)c(F)c(F)c2)C(=O)N(C)[C@@H](Cc2ccc(F)cc2)C(=O)N1C [Example 10562] ({CH2CO}-[Phe(3,4,5-F3)][NMePhe(4-F)][NMeNle][dP]DV[NMeF]E[dPip]WYNCG-NH2; thioether N-13)
8.00 to 9.00	CCCC[C@H]1C(=O)N(C)[C@@H](CCCC)C(=O)N[C@@H](C)C(=O)N[C@H](C(=O)NCC(N)=O)CSCC(=O)N[C@@H](Cc2ccc(O)cc2)C(=O)N2CCCC[C@H]2C(=O)N[C@@H](CC(=O)O)C(=O)N2CCC[C@H]2C(=O)N[C@@H](CN)C(=O)N[C@@H](CCC(N)=O)C(=O)N2C[C@H](O)C[C@H]2C(=O)N[C@@H](Cc2c[nH]c3ccccc23)C(=O)N[C@@H](CO)C(=O)N[C@@H](Cc2csc3ccccc23)C(=O)N1C [Example 1507] ({CH2CO}-Y[Pip]DP[Dap]Q[Hyp]WS[Bta][NMeNle][NMeNle]ACG-NH2; thioether N-14)
8.00 to 9.00	CCCC[C@H]1C(=O)N(C)[C@@H](CCCC)C(=O)N[C@@H](CCC(=O)O)C(=O)N[C@H](C(=O)NCC(N)=O)CSCC(=O)N[C@@H](Cc2ccc(O)cc2)C(=O)N(C)[C@@H](C)C(=O)N[C@@H](CC(=O)O)C(=O)N2CCCC2C(=O)N[C@@H](CN)C(=O)N[C@@H](CCC(=O)O)C(=O)N2C[C@H](O)C[C@H]2C(=O)N[C@@H](Cc2c[nH]c3ccccc23)C(=O)N[C@@H](CCN)C(=O)N[C@@H](Cc2cn(CC(=O)O)c3ccccc23)C(=O)N1C (stereo partly drawn) [Example 6172] ({CH2CO}-Y[NMeA]D[ξP][Dap]E[Hyp]W[Dab][Trp(1-CH2COOH)][NMeNle][NMeNle]ECG-NH2; thioether N-14)
5.00 to 6.00	CCCC[C@H]1NC(=O)[C@H](Cc2c[nH]c3ccccc23)NC(=O)[C@H](CO)CC(=O)[C@H](Cc2c[nH]c3ccccc23)NC(=O)[C@@H]2C[C@@H](O)CN2C(=O)[C@H](CCC(N)=O)NC(=O)[C@H](Cc2cnc[nH]2)NC(=O)[C@@H]2CCCC2C(=O)[C@H](CC(N)=O)NC(=O)[C@H](C)N(C)C(=O)[C@H](Cc2ccc(O)cc2)NC(=O)CSCC(C(=O)NCC(N)=O)NC(=O)[C@H](CCC(=O)O)NC(=O)[C@H](CCCC)N(C)C1=O (stereo partly drawn) [Example 10127] ({CH2CO}-Y[NMeA][X2]HQ[Hyp][X3]W[dNle][NMeNle]E[ξC]G-NH2; thioether N-12)
